Legend:
human NOX3 (hNOX3) = target: T1, human NOX3 (hNOX3) (Homo sapiens, UniProt Q9HBY0); experiment: NOX3 inhibition assay (L-012), HEK293 cells stably overexpressing human NOX3; type: cell-based; conditions: HEK293-hNOX3, PMA stimulated
T1 construct: pLV-CMV-hNOX3-puro (NM_015718.3); host or cells: HEK293 (CLS GmbH), lentiviral transduction
T1 sequence (Q9HBY0 1-568): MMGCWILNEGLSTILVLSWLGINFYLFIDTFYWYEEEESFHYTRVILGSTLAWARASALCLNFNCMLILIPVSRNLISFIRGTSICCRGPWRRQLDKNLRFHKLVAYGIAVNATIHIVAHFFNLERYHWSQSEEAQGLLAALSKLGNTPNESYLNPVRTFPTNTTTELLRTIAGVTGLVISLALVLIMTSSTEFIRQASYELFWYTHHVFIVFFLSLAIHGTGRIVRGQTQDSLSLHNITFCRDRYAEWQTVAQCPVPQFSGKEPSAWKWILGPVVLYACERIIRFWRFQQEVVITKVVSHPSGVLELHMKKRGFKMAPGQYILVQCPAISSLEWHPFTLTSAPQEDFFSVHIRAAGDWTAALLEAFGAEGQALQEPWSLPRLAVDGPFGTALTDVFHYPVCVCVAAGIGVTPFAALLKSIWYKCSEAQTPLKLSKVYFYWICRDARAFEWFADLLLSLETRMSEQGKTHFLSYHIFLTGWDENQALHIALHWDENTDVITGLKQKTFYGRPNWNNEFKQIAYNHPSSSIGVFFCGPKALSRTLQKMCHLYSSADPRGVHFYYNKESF
T1 sequence (P13498 2-195 partner limits assumed): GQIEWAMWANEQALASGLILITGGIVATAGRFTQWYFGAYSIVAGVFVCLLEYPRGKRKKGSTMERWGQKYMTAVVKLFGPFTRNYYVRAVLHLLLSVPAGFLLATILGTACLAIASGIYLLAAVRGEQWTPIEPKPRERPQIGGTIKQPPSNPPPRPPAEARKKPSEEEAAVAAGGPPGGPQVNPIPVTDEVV
Text: Plasmids are Purchased from Vectorbuilder. • for HEK-hNOX1 all necessary subunits are cloned accordingly: • pLV-CMV-hNOX1-puro (NM_007052.5) • pLV-CMV-hNOXO1-blas (NM_172168.3) • pLV-CMV-hp22phox-hygro (NM_000101.4) • pLV-CMV-hNOXA1-neo (NM_006647.2) • for HEK-hNOX3 • pLV-CMV-hNOX3-puro (NM_015718.3)
3rd generation lentiviral particles are produced in HEK293 suspension cells by transient transfection of three helper and expression plasmids. Crucial lentivirus supernatants are harvested, clarified by filtration and concentrated by precipitation. Lentivirus titers are determined in transducing units in (TU/mL) by transduction of HT1080 cells and colony forming assay. Parental HEK293 cells, purchased from CLS GmbH, are transduced with replication-incompetent 3rd generation lentiviral particles (MOI 2) and expanded for at least 2 weeks before cryopreservation of tested lots. During cultivation, medium is changed three times per week and cells are sub-cultured at least once per week. Selection antibiotics are added according to the plasmids (1 μg/ml puromycin, 1.5 μg/ml blasticidin, 200 μg/ml G418 and 100 μg/ml hygromycin).
Evaluation of the NOX4 inhibitors on NOX3 activity is assessed in HEK293 cells stably overexpressing human NOX3 (hNOX3).
Cells are seeded in 384 well plates for 2 days. […] Cells are then stimulated with PMA at 0.1 μM to induce NOX3-dependent ROS production. […] Luminescence is measured with an PHERAstar multimode reader.

human hepatocytes = experiment: Evaluation of hepatocyte clearance (metabolic stability); type: in vitro ADME; conditions: 1 μM test compound, 5% human serum, Table 3
Description: The metabolic degradation of the test compound is assayed in a hepatocyte suspension. Hepatocytes (cryopreserved) are incubated in Dulbecco's modified eagle medium (supplemented with […] glucagon/500 mL, 2.5 mg insulin/500 mL and 3.75 mg/500 mL hydrocortisone) containing 5% human serum.
Following a 30 min preincubation in an incubator (37° C., 10% CO2) 5 μl of test compound solution (80 μM; from 2 mM in DMSO stock solution diluted 1:25 with medium) are added into 395 μl hepatocyte suspension (cell density in the range 0.25-5 Mio cells/mL, typically 1 Mio cells/mL; final concentration of test compound 1 μM, final DMSO concentration 0.05%).
The cells are incubated for six hours (incubator, orbital shaker) and samples (25 μl) are taken at 0, 0.5, 1, 2, 4 and 6 hours. Samples are transferred into acetonitrile and pelleted by centrifugation (5 min). The supernatant is transferred to a new 96-deepwell plate, evaporated under nitrogen and resuspended.
Decline of Parent Compound is Analyzed by HPLC-MS/MS.
CLint is Calculated as Follows:
CL_[…]=Dose/AUC=(C0/CD)/(AUD+clast/k)×1000/60. • C0: initial concentration in the incubation [μM], CD: cell density of vital cells [10^6 cells/mL], AUD: area under the data [μM×h], clast: concentration of last data point [μM], • k: slope of the regression line for parent decline [h-1].
The calculated in vitro hepatic intrinsic clearance can be scaled up to the intrinsic in vivo hepatic clearance and used to predict hepatic in vivo blood clearance (CL) by the use of a liver model (well stirred model).
CL_[…]_INVIVO[ml/min/kg]=(CL_[…][μL/min/10^6 cells]×hepatocellularity[10^6 cells/g liver]×liver factor[g/kg bodyweight])/1000
CL[ml/min/kg]=CL_[…]_INVIVO[ml/min/kg]×hepatic blood flow[ml/min/kg]/(CL_[…]_INVIVO[ml/min/kg]+hepatic blood flow[ml/min/kg])

human NOX4 (hNOX4) = target: T2, human NOX4 (hNOX4) (Homo sapiens, UniProt Q9NPH5); experiment: cell-based
T2 sequence (Q9NPH5 1-578): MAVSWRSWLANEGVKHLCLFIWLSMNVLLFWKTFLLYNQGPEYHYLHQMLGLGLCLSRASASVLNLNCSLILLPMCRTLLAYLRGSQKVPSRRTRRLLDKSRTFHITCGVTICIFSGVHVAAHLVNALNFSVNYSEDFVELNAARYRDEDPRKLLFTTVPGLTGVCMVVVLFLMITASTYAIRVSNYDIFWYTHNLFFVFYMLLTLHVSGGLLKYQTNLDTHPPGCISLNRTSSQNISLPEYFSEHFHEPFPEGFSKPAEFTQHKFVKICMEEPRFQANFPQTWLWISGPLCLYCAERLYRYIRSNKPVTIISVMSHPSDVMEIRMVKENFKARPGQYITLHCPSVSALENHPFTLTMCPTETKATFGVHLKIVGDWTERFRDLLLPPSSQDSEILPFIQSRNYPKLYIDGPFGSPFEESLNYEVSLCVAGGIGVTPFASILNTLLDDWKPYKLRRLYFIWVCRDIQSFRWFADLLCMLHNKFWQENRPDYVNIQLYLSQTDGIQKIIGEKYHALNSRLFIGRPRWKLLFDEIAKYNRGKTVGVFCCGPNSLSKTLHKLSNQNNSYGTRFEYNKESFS
T2 sequence (P13498 2-195 partner limits assumed): T1 sequence (P13498 2-195 partner limits assumed)
Description: The synthetic gene phNOX4_DNA3_1_Zeo (Accession: AAF68973) is assembled from synthetic oligonucleotides and/or PCR products. The fragment is cloned into pcDNA3.1_Zeo_A011 using NheI and XhoI cloning sites. The plasmid DNA is purified from transformed bacteria and its concentration is determined by UV spectroscopy. The final construct is verified by sequencing. The plasmid is transfected via electroporation (Amaxa electroporation device) in combination with Nucleofector Kit V. Selection of NOX4 overexpressing genes is achieved using selection antibiotic Zeocin.
The inhibitory activity of the example compounds of the invention is determined using the following procedure:
Cells are cultured in the Dulbecco's Modified Eagle Medium (DMEM) media containing 4.5 g/L glucose supplemented with 10% fetal calf serum and 250 μg/ml Zeocin in an incubator at 37° C. with 5% CO2. For the assay, cells are seeded in 384 well plates.
After incubation Lumigen HyPerBlu™ is added and cells are incubated for additional 30 min at 24° C. in a humidified incubator. Next, luminescence is measured using an Envision Multimode Plate reader to determine levels of produced H2O2 in the wells.

Structure (SMILES)	IC50 (human NOX3 (hNOX3)) [nM]	Qh [%] (human hepatocytes)	IC50 (human NOX4 (hNOX4)) [nM]
O=c1c2scnc2nc(SCc2ccc(C(F)(F)F)cc2)n1-c1cc(F)c(O)c(F)c1 [Example 7]	> 100000	55	77
O=c1c2scnc2nc(SCc2ccc(Cl)cc2)n1-c1ccc(O)nn1 [Example 64]	> 100000	47	133
O=c1c2scnc2nc(SCc2ccc(Cl)cc2F)n1-c1cnc(O)c(F)c1 [Example 35]	39900	15	33
O=c1c2scnc2nc(SCc2ccc(Cl)cc2F)n1-c1cc(F)c(O)c(F)c1 [Example 2, 5-((4-Chloro-2-fluorobenzyl)thio)-6-(3,5-difluoro-4-hydroxyphenyl)thiazolo[4,5-d]-pyrimidin-7(6H)-one]	4100	53	39
O=c1c2scnc2nc(SCc2ccc(C(F)(F)F)cc2F)n1-c1ccc(O)nc1 [Example 26]	62100	41	120
O=c1c2scnc2nc(SCc2ccc(F)cc2)n1-c1ccc(O)nc1 [Example 30]	98100	22	539
O=c1c2scnc2nc(SCc2c(F)cc(F)cc2F)n1-c1ccc(O)nn1 [Example 67]	> 100000	37	165
O=c1c2scnc2nc(SCc2ccc(C(F)(F)F)cc2)n1-c1ccc(O)nc1 [Example 27]	86800	37	135
O=c1c2scnc2nc(SCc2ccc(F)cc2Br)n1-c1cnc(O)c(F)c1 [Example 44]	73100	29	63
Cc1cc(Cl)ccc1CSc1nc2ncsc2c(=O)n1-c1cnc(O)c(F)c1 [Example 37]	70400	16	34
O=c1c2scnc2nc(SCc2ccc(C(F)(F)F)cc2)n1-c1cnc(O)c(F)c1 [Example 32, 6-(5-Fluoro-6-hydroxypyridin-3-yl)-5-((4-(trifluoromethyl)benzyl)thio)thiazolo[4,5-d]pyrimidin-7(6H)-one]	38000	15	40
O=c1c2scnc2nc(SCc2ccc(Cl)cc2)n1-c1cnc(O)c(F)c1 [Example 33]	> 100000	15	29
O=c1c2scnc2nc(SCc2ccc(Cl)cc2)n1-c1cnc(O)nc1 [Example 56]	> 100000	<4	153
O=c1c2scnc2nc(SCc2ccc(Cl)cc2F)n1-c1ccc(O)nn1 [Example 61, 5-((4-Chloro-2-fluorobenzyl)thio)-6-(6-hydroxypyridazin-3-yl)thiazolo[4,5-d]pyrimidin-7(6H)-one]	28200	55	103
Cc1cc(F)cc(C)c1CSc1nc2ncsc2c(=O)n1-c1cnc(O)nc1 [Example 55]	> 100000	15	116
Cc1cc(Cl)ccc1CSc1nc2ncsc2c(=O)n1-c1cnc(O)nc1 [Example 54]	49400	33	111
O=c1c2scnc2nc(SCc2ccc(Cl)cc2Cl)n1-c1cnc(O)c(F)c1 [Example 39]	56200	26	56

Continued, values first:

IC50 (human NOX3 (hNOX3)) [nM]	Qh [%] (human hepatocytes)	IC50 (human NOX4 (hNOX4)) [nM]	Structure (SMILES)
25500	73	38	O=c1c2scnc2nc(SCc2c(F)cc(F)cc2F)n1-c1ccc(O)cc1F [Example 14]
77500	<4	65	O=c1c2scnc2nc(SCc2c(F)cc(F)cc2F)n1-c1cnc(O)cn1 [Example 69, 6-(5-Hydroxypyrazin-2-yl)-5-((2,4,6-trifluorobenzyl)thio)thiazolo[4,5-d]pyrimidin-7(6H)-one]
15500	20	52	O=c1c2scnc2nc(SCc2c(F)cc(F)cc2F)n1-c1cnc(O)c(F)c1F [Example 52, 6-(4,5-Difluoro-6-hydroxypyridin-3-yl)-5-((2,4,6-trifluorobenzyl)thio)thiazolo[4,5-d]-pyrimidin-7(6H)-one]
59100	73	367	O=c1c2scnc2nc(SCc2c(F)cc(F)cc2F)n1-c1ccc(O)c(Cl)c1 [Example 16]
71500	23	113	O=c1c2scnc2nc(SCc2c(F)ccc(F)c2F)n1-c1cnc(O)c(F)c1 [Example 45]
32300	26	60	O=c1c2scnc2nc(SCc2c(F)cc(F)cc2Cl)n1-c1cnc(O)c(F)c1 [Example 41]
> 100000	14	60	O=c1c2scnc2nc(SCc2c(F)cc(F)cc2F)n1-c1cnc(O)c(F)c1 [Example 31, 6-(5-Fluoro-6-hydroxypyridin-3-yl)-5-((2,4,6-trifluorobenzyl)thio)thiazolo[4,5-d]-pyrimidin-7(6H)-one]
> 100000	61	33	O=c1c2scnc2nc(SCc2c(F)cc(F)cc2F)n1-c1ccc(O)cc1 [Example 15]
18800	15	426	N#Cc1cc(-n2c(SCc3c(F)cc(F)cc3F)nc3ncsc3c2=O)cnc1O [Example 47, 2-Hydroxy-5-(7-oxo-5-((2,4,6-trifluorobenzyl)thio)thiazolo[4,5-d]pyrimidin-6(7H)-yl)-nicotinonitrile]
